One test deals with IL-8. Kind of test: IL-8 release in supernatants of LPS-treated primary microglial cells (ELISA). The format is cell-based, Wistar rats. Conditions: 72 h; for IL-8 release: LPS-treated; for IC50: Rattus norvegicus, inhibition of LPS-induced cytokine release, read-out: IL-8 IC50. On the procedure: (§1) Primary microglial cell cultures were prepared from brains of newborn Wistar rats. Ethics approval for the experiments was granted by the EBIOTEC Review Board (Valter Lombardi, Iván Carrera and Lucía Fernández-Novoa; Project Identification Code: Sinularia Project October 2013; approved 30 October 2013). The neocortex of one-day-old postnatal rats was aseptically dissected out, and the meninges and blood vessels were carefully removed. Following cutting in a medium containing 20% horse serum, the suspension was filtered through a […] and transferred as a single cell suspension to culture dishes, using 5.0 mL of medium per dish. The cultures were incubated at 37 °C in an atmosphere containing 5% CO2. The culture medium consisted of Minimum Essential Medium Eagle, supplemented with L-glutamine, amino acids, vitamins, penicillin, gentamicin, sodium bicarbonate and 20% heat-inactivated horse serum. The medium was changed twice a week. After 1 week, the concentration of horse serum was reduced to 10%. After sixteen days in culture, cells were treated with 1 μg/mL of lipopolysaccharide (LPS). […] Positive controls were treated only with LPS, while negative controls were treated with complete medium. After 72 h of incubation, cells were counted, and 2.5 mL of the supernatants were collected from each well and frozen at −40 °C for cytokine analyses. All experiments were carried out twice.
(§2) The supernatants obtained from cell cultures were analyzed for TNF-α, IL-1β, IL-4, IL-6, IL-8, IL-10 and IL-18 using commercially available ELISA kits following the manufacturers’ instructions. All samples were assayed in duplicate, and equivocal results were repeated. The cytokine concentration was calculated from a standard curve of the corresponding recombinant cytokine.
(§3) The cytotoxicity of the compounds was measured by the colorimetric methyl thiazol tetrazolium (MTT) assay and scored as a percentage of the absorbance reduction of treated cultures versus untreated control cultures. Primary microglial cell cultures were seeded into 96-well microplates at 10^4 cells per well and allowed to grow for 24 h. […] The compounds were serially diluted in complete culture medium with two-fold dilutions (100, 50, 25, 12.5, 6.25, 3.12 and 1.56 μg/mL for in vitro cytotoxicity; 12.5, 6.25, 3.12, 1.56, 0.78 and 0.39 μg/mL for cytokine release). Different concentrations of the compounds were added to each well, and Tamoxifen was used as a positive control, with concentrations ranging from 50 to 1.56 μg/mL. Plates were incubated at 37 °C for 72 h under 5% CO2 atmosphere. Then, the 50 μL of MTT-PBS solution in culture medium were added to each well. The plates were further incubated for 4 h under the same conditions. The medium was then removed and replaced with 200 μL of DMSO to solubilize the MTT formazan product. The solutions were shaken for 20 min, and the absorbance was measured at 570 nm. […] Each value represents the mean of triplicate determinations. The IC50 values were calculated from the compound concentration-response curves.
On the technique in general: In an ELISA, binding on a coated surface is turned into a signal by an enzyme label.

The next test deals with TNF-α. The test can be described thus: TNF-α release in supernatants of LPS-treated primary microglial cells (ELISA). The format is cell-based, Wistar rats. The conditions noted are these: 72 h; for TNF-α release: LPS-treated; for IC50: Rattus norvegicus, inhibition of LPS-induced cytokine release, read-out: TNF-α IC50. The protocol: as §1, §2, §3
A further test relates to IL-18. The test can be described thus: IL-18 release in supernatants of LPS-treated primary microglial cells (ELISA). Conditions: 72 h; for IL-18 release: LPS-treated; for IC50: Rattus norvegicus, inhibition of LPS-induced cytokine release, read-out: IL-18 IC50. The format is cell-based, Wistar rats. On the procedure:
as §1, §2
as §3, with “The compounds were serially diluted in complete culture medium with two-fold dilutions (100, 50, 25, 12.5, 6.25, 3.12 and 1.56 μg/mL for in vitro cytotoxicity; 12.5, 6.25, 3.12, 1.56, 0.78 and 0.39 μg/mL for cytokine release).” left out

A further test relates to CHIKV replicon. The test can be described thus: CHIKV replicon assay, Cell-IQ live cell imaging, EGFP fluorescence intensity. The conditions noted are these: 50 and 100 μM, 48 h. (Replicon systems follow genome replication, usually without infectious particles.)

Values after ≈ are worked out from the molar mass of the structure shown.

The IC50 is the point on the concentration scale where inhibition reaches its midpoint. As to `C=C(C)[C@@H]1CC(=O)[C@H]2[C@H](C1)[C@@H]1C(=O)O[C@@H]3C[C@@]4(C)O[C@H]2C(=O)[C@@H]4[C@H]13` [Compound 6, ineleganolide], the IL-8 release in the test on IL-8 (C1: 1.0 μg/mL), in the test with IL-8 (C2: 2.5 μg/mL) and in the test on IL-8 (C3: 5.0 μg/mL) was 247 ± 8 pg/mL each time. Besides, the half-maximal inhibitory concentration (IC50) in the test on IL-8, in the test with TNF-α and with IL-18 was > 12.5 µg/mL in each case. Also, the figures for the TNF-α release in the test with TNF-α (C1: 1.0 μg/mL), in the test with TNF-α (C2: 2.5 μg/mL) and in the test on TNF-α (C3: 5.0 μg/mL) were 31.2 ± 2.9 pg/mL, 30.6 ± 2.6 pg/mL and 32.3 ± 3.2 pg/mL, respectively. The IL-18 release in the test with IL-18 (C1: 1.0 μg/mL), with IL-18 (C2: 2.5 μg/mL) and in the test on IL-18 (C3: 5.0 μg/mL) was 312 ± 8.2 pg/mL each time. Besides, the “decrease in EGFP marker fluorescence intensity” value (from here on “decrease”) with CHIKV replicon is recorded as “only moderate decreases”.
For `C=C(C)[C@@H]1C/C=C2\C(=O)O[C@@H](C[C@]3(C)CC(=O)[C@H](CC(=O)C1)O3)[C@@H]2O` [Compound 1, 5-epi-sinuleptolide], the IL-8 release in the test on IL-8 (C1: 1.0 μg/mL) is 256 ± 12 pg/mL; in the test with IL-8 (C2: 2.5 μg/mL), 239 ± 5 pg/mL; in the test with IL-8 (C3: 5.0 μg/mL), 241 ± 7 pg/mL. Also, the IC50 in the test with IL-8, with TNF-α and in the test with IL-18 was > 12.5 µg/mL each time. The TNF-α release in the test on TNF-α (C1: 1.0 μg/mL) turned out to be 33.5 ± 11.2 pg/mL; with TNF-α (C2: 2.5 μg/mL), 31.2 ± 9.2 pg/mL; in the test on TNF-α (C3: 5.0 μg/mL), 33.6 ± 11.1 pg/mL. The IL-18 release in the test on IL-18 (C1: 1.0 μg/mL) was 319 ± 8.1 pg/mL; in the test on IL-18 (C2: 2.5 μg/mL), 318 ± 7.5 pg/mL; in the test on IL-18 (C3: 5.0 μg/mL) it was 315 ± 8.1 pg/mL. Moreover, in the test with CHIKV replicon, the “decrease” value is “strongest decrease”.
Consider `C=C(C)[C@@H]1C/C=C2\C(=O)O[C@@H](C[C@]3(C)CC(=O)[C@@H](CC(=O)C1)O3)[C@@H]2O` [Compound 2, sinuleptolide], for which the IL-8 release in the test on IL-8 (C1: 1.0 μg/mL) came out at 249 ± 13 pg/mL; in the test on IL-8 (C2: 2.5 μg/mL), 123 ± 11 pg/mL; with IL-8 (C3: 5.0 μg/mL) it was 108 ± 9 pg/mL. In addition, the figures for the IC50 in the test on IL-8, in the test on TNF-α and in the test on IL-18 were 2.3 µg/mL (≈ 6.6 µM), 1.7 µg/mL (≈ 4.88 µM) and 2.9 µg/mL (≈ 8.32 µM), respectively. The TNF-α release with TNF-α (C1: 1.0 μg/mL) is on record as 34.1 ± 9.1 pg/mL; in the test on TNF-α (C2: 2.5 μg/mL), 12.3 ± 3.4 pg/mL; with TNF-α (C3: 5.0 μg/mL) it was 9.8 ± 3.3 pg/mL. Besides, the results for the IL-18 release in the test with IL-18 (C1: 1.0 μg/mL), in the test on IL-18 (C2: 2.5 μg/mL) and with IL-18 (C3: 5.0 μg/mL) were 326 ± 4.9 pg/mL, 187 ± 14 pg/mL and 155 ± 11 pg/mL, respectively. Moreover, in the test with CHIKV replicon, the “decrease” value is on record as “strongest decrease”.
For `C=C(C)C1CCC23OC2C(CC2(C)CC(=O)C(CC(=O)C1)O2)OC3=O` (stereo not shown) [Compound 3, scabrolide D], the IL-8 release with IL-8 (C1: 1.0 μg/mL) stood at 247 ± 8 pg/mL; in the test with IL-8 (C2: 2.5 μg/mL) it was 237 ± 4 pg/mL; in the test on IL-8 (C3: 5.0 μg/mL) it was 244 ± 11 pg/mL. Moreover, the IC50 in the test on IL-8, with TNF-α and in the test with IL-18 was > 12.5 µg/mL in each case. Moreover, the values for the TNF-α release in the test on TNF-α (C1: 1.0 μg/mL), with TNF-α (C2: 2.5 μg/mL) and with TNF-α (C3: 5.0 μg/mL) were 33.6 ± 11.2 pg/mL, 24.5 ± 6.9 pg/mL and 35.4 ± 12.4 pg/mL, respectively. Further, the IL-18 release came to 312 ± 8.2 pg/mL with IL-18 (C1: 1.0 μg/mL), 321 ± 7.8 pg/mL with IL-18 (C2: 2.5 μg/mL) and 318 ± 7.6 pg/mL with IL-18 (C3: 5.0 μg/mL). Moreover, the “decrease” value in the test on CHIKV replicon was “inactive”.

Values taken from publication PMC4113814, “Bioactive Cembrane Derivatives from the Indian Ocean Soft Coral, Sinularia kavarattiensis” (Marine Drugs, 2014).
